# Test results published in ChEMBL document CHEMBL6074692, “Design, synthesis, and evaluation of novel benzofuran and pyrazole-based derivatives as dual AChE/BuChE inhibitors with antioxidant properties for Alzheimer's disease management” (Eur J Med Chem, 2025).
# Calls of active or inactive are those of the source. The rule behind the calls is not given here.
# Columns and labels:
# [1] = target: T1, Acetylcholinesterase (Homo sapiens, UniProt P22303); experiment: Inhibition of AChE (unknown origin) by Ellman's method
# [2] = Antioxidant activity assessed as DPPH radical scavenging activity; assay type: functional
# [3] = target: Cholinesterase (Homo sapiens, UniProt P06276); experiment: Inhibition of BuChE (unknown origin)
# [4] = target: T1, Acetylcholinesterase; experiment: Mixed inhibition of AChE (unknown origin)
# [5] = Chronic toxicity in male Wistar rat assessed as negative side effects at 10 mg/kg, po measured after 1 month; assay type: organism-based; conditions: in vivo, 730 h, time 1 months
# [6] = Chronic toxicity in male Wistar rat assessed as drug tolerance at 10 mg/kg, po measured after 1 month; assay type: organism-based; conditions: in vivo, 730 h, time 1 months
# [7] = Toxicity in male Wistar rat assessed as HB level at 10 mg/kg, po (reference value: 13.11 +/- 0.48 g/dL); assay type: organism-based; conditions: in vivo
# [8] = Toxicity in male Wistar rat assessed as RBC level measured per million cells at 10 mg/kg, po (reference value: 6.96 +/- 0.45 /cm); assay type: organism-based; conditions: in vivo
# [9] = Toxicity in male Wistar rat assessed as haematocrit level at 10 mg/kg, po (reference value: 39.01 +/- 1.12 %); assay type: organism-based; conditions: in vivo
# [10] = Toxicity in male Wistar rat assessed as MCV level at 10 mg/kg, po (reference value: 59.92 +/- 2.2 fL); assay type: organism-based; conditions: in vivo
# [11] = Toxicity in male Wistar rat assessed as MCH level at 10 mg/kg, po (reference value: 18.50 +/- 1.52 pg); assay type: organism-based; conditions: in vivo
# [12] = Toxicity in male Wistar rat assessed as MCHC level at 10 mg/kg, po (reference value: 32.52 +/- 2.48 g/dL); assay type: organism-based; conditions: in vivo
# [13] = Toxicity in male Wistar rat assessed as RDW-CV level at 10 mg/kg, po (reference value: 16.93 +/- 1.69 %); assay type: organism-based; conditions: in vivo
# [14] = Toxicity in male Wistar rat assessed as MPV level at 10 mg/kg, po (reference value: 7.01 +/- 0.28 fL); assay type: organism-based; conditions: in vivo
# [15] = Toxicity in male Wistar rat assessed as WBC level at 10 mg/kg, po (reference value: 4.60 +/- 0.61 10^3/cmm); assay type: organism-based; conditions: in vivo
# [16] = Toxicity in male Wistar rat assessed as ALT level at 10 mg/kg, po (reference value: 42.18 +/- 3.35 U/L); assay type: organism-based; conditions: in vivo
# [17] = Toxicity in male Wistar rat assessed as AST level at 10 mg/kg, po (reference value: 78.16 +/- 9.37 U/L); assay type: organism-based; conditions: in vivo
# [18] = Toxicity in male Wistar rat assessed as ALP level at 10 mg/kg, po (reference value: 137.18 +/- 7.04 U/L); assay type: organism-based; conditions: in vivo
# [19] = Toxicity in male Wistar rat assessed as total bilirubin level at 10 mg/kg, po (reference value: 0.68 +/- 0.11 mg/dL); assay type: organism-based; conditions: in vivo
# [20] = Toxicity in male Wistar rat assessed as creatinine level at 10 mg/kg, po (reference value: 0.68 +/- 0.1 mg/dL); assay type: organism-based; conditions: in vivo
# [21] = Toxicity in male Wistar rat assessed as urea level at 10 mg/kg, po (reference value: 29.89 +/- 1.84 mg/dL); assay type: organism-based; conditions: in vivo
# [22] = Toxicity in male Wistar rat assessed as albumin level at 10 mg/kg, po (reference value: […]); assay type: organism-based; conditions: in vivo
# [23] = Toxicity in male Wistar rat assessed as decrease in proliferation of Kupffer cells at 10 mg/kg, po by H and E staining based analysis; assay type: organism-based; conditions: in vivo
# [24] = Toxicity in male Wistar rat assessed as histological change in renal parenchyma at 10 mg/kg, po by H and E staining based analysis; assay type: organism-based; conditions: in vivo
# [25] = Toxicity in male Wistar rat assessed as histopathological change in kidney at 10 mg/kg, po by H and E staining based analysis; assay type: organism-based; conditions: in vivo
# T1 sequence (P22303 whole entry): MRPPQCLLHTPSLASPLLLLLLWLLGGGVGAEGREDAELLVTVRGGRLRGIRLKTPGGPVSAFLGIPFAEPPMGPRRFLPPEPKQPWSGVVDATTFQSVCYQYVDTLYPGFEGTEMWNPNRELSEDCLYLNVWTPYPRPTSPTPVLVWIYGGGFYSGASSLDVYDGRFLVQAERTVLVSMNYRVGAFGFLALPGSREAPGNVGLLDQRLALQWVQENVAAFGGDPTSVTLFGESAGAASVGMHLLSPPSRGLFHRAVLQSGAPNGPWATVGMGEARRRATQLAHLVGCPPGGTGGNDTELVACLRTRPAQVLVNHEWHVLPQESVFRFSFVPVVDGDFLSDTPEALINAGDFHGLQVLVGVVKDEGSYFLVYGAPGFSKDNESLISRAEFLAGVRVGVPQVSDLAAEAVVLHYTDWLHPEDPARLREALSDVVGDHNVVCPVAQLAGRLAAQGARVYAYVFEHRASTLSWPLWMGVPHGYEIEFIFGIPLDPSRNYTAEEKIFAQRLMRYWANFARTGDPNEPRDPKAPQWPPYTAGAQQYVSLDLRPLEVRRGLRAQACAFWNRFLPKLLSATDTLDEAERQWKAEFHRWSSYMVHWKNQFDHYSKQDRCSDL
# Chain of Cholinesterase (P06276 whole entry): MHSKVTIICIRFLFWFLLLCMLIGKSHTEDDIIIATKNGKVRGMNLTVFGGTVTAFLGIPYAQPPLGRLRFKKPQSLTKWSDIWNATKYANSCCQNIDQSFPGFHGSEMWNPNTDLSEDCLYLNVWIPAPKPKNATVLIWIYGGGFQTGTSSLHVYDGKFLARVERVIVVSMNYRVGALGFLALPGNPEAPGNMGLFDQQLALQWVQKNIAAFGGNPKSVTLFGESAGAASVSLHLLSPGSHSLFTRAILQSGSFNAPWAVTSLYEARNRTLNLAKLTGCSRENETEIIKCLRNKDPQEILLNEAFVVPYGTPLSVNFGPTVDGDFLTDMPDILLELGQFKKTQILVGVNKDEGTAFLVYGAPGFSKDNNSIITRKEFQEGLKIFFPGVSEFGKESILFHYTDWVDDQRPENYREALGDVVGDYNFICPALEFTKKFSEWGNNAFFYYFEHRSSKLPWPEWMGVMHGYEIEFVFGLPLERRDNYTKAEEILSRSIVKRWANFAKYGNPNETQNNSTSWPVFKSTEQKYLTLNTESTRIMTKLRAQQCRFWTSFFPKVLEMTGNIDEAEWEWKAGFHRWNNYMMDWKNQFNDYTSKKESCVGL
smiles,measurement,setting,value
Cc1ccc(NC(=O)COc2ccc(O)c(-c3cn[nH]c3-c3ccc(Cl)cc3)c2)cc1,IC50,[1],43.4 µM
same,IC50,[2],4.94 µg/mL
O=C(COc1ccc(O)c(-c2cn[nH]c2-c2ccccc2)c1)Nc1ccc(Cl)cc1,IC50,[1],40.5 µM
same,IC50,[2],2.59 µg/mL
Cc1ccc(C(=O)c2coc3ccc(OCC(=O)Nc4ccccc4)cc23)cc1,IC50,[1],3.22 µM
same,IC50,[3],18.6 µM
same,IC50,[2],363 µg/mL
Cc1ccc(C(=O)c2coc3ccc(OCC(=O)Nc4ccc(Cl)cc4)cc23)cc1,IC50,[1],52 µM
same,IC50,[2],732 µg/mL
O=C(COc1ccc2occ(C(=O)c3ccc(Cl)cc3)c2c1)Nc1ccc(Cl)cc1,IC50,[1],18.1 µM
same,IC50,[2],630 µg/mL
Cc1ccc(-c2[nH]ncc2-c2cc(OCC(=O)Nc3ccccc3)ccc2O)cc1,IC50,[1],40.8 µM
same,IC50,[2],3.24 µg/mL
O=C1O[C@H]([C@@H](O)CO)C(O)=C1O [ASCORBIC ACID],IC50,[2],2.85 µg/mL
O=C(COc1ccc2occ(C(=O)c3ccc(Cl)cc3)c2c1)Nc1ccccc1,IC50,[1],0.961 µM
same,IC50,[3],1.26 µM
same,IC50,[2],153 µg/mL
O=C(COc1ccc2occ(C(=O)c3ccccc3)c2c1)Nc1ccc(Cl)cc1,IC50,[1],40.6 µM
same,IC50,[2],132 µg/mL
Cc1ccc(NC(=O)COc2ccc3occ(C(=O)c4ccccc4)c3c2)cc1,IC50,[1],21.4 µM
same,IC50,[2],262 µg/mL
O=C(COc1ccc(O)c(-c2cn[nH]c2-c2ccccc2)c1)Nc1ccccc1,IC50,[1],50.2 µM
same,IC50,[2],3.07 µg/mL
Cc1ccc(NC(=O)COc2ccc3occ(C(=O)c4ccc(Cl)cc4)c3c2)cc1,IC50,[1],11.9 µM
same,IC50,[2],375 µg/mL
Cc1ccc(NC(=O)COc2ccc(O)c(-c3cn[nH]c3-c3ccccc3)c2)cc1,IC50,[1],29.3 µM
same,IC50,[2],9.93 µg/mL
O=C(COc1ccc(O)c(-c2cn[nH]c2-c2ccc(Cl)cc2)c1)Nc1ccc(Cl)cc1,IC50,[1],119 µM
same,IC50,[2],3.18 µg/mL
O=C(COc1ccc2occ(C(=O)c3ccccc3)c2c1)Nc1ccccc1,IC50,[1],2.07 µM
same,IC50,[3],3.39 µM
same,IC50,[2],587 µg/mL
O=C(COc1ccc(O)c(-c2cn[nH]c2-c2ccc(Cl)cc2)c1)Nc1ccccc1,IC50,[1],13.7 µM
same,IC50,[2],5.87 µg/mL
Cc1ccc(NC(=O)COc2ccc3occ(C(=O)c4ccc(C)cc4)c3c2)cc1,IC50,[1],59.3 µM
same,IC50,[2],240 µg/mL
Cc1ccc(-c2[nH]ncc2-c2cc(OCC(=O)Nc3ccc(Cl)cc3)ccc2O)cc1,IC50,[1],2.86 µM
same,IC50,[3],4.26 µM
same,IC50,[2],3.15 µg/mL
same,inhibition,[4],Active
same,Activity,[5],Non-toxic
same,Activity,[6],Non-toxic
same,Activity,[7],13.28 g/dL
same,Activity,[8],7.14 10^6/mm3
same,Activity,[9],38.32%
same,Activity,[10],60.31 fL
same,Activity,[11],19.51 pg
same,Activity,[12],32.59 g/dL
same,Activity,[13],16.64%
same,Activity,[14],6.91 fL
same,Activity,[15],4.86 10^3/mm3
same,Activity,[16],42.97 U/L
same,Activity,[17],76.11 U/L
same,Activity,[18],137.33 U/L
same,Activity,[19],0.63 mg/dL
same,Activity,[20],0.69 mg/dL
same,Activity,[21],30.25 mg/dL
same,Activity,[22],3.31 g/dL
same,Activity,[23],Toxic
same,Activity,[24],Non-toxic
same,Activity,[25],Non-toxic
Cc1ccc(NC(=O)COc2ccc(O)c(-c3cn[nH]c3-c3ccc(C)cc3)c2)cc1,IC50,[1],4.76 µM
same,IC50,[3],8.63 µM
same,IC50,[2],4.26 µg/mL
